Results as given in PMC3701070 (PLoS ONE, 2013).
Read-outs that look alike come from different tables or passages of the source.

Columns and labels:
SIK (h) = molecular target: T1, SIK (h) (Homo sapiens, UniProt P57059); assay: Kinase panel (Millipore) enzyme activity; assay type: biochemical
T1 construct: purchased Millipore

[1] = system: phospho-MEK1/2 (pMEK) in ES-2 ovarian carcinoma (BRAF^V600E) cells; assay: Western blot, pMEK in ES-2 cells; assay type: cell-based; conditions: Homo sapiens; ES-2 cells (BRAF^V600E), 1 h, immunoblot; read-out: IC50 for pMEK inhibition
Protocol: Cells were lysed in 25 mM Tris-HCl pH 7.5, 2 mM EDTA, 2 mM EGTA, 1% Triton X-100, 0.1% SDS, 50 mM sodium-β-glycerophosphate, 2 mM Na3VO4, 12.5 mM sodium pyrophosphate, 2× Complete EDTA-free mini protease inhibitor tablets (Roche), 2× phosphatase inhibitor cocktails I and II (Sigma-Aldrich). Protein concentrations were determined by Bio-Rad DC™ or dye-based protein assays and lysates were resolved by SDS-PAGE (Invitrogen NuPAGE®) and transferred to PVDF membranes. Membranes were blocked with Odyssey® (LI-COR Biosciences) blocking buffer and incubated with primary antibodies overnight at 4°C. Blots were washed with PBS containing 0.1% Tween-20, incubated with secondary antibodies, and washed again prior to signal detection on a LI-COR Odyssey® reader.
Signals were quantified and used to determine IC50 values. (PPTX) Click here for additional data file.

PKD2 (h) = molecular target: T2, PKD2 (h) (Homo sapiens, UniProt Q9BZL6); assay: Kinase panel (Millipore) enzyme activity; assay type: biochemical
T2 construct: purchased Millipore

ALK5 (h) = ALK5 (h) (Homo sapiens, UniProt P36897); assay: ALK5 binding assay
A375P cells [2] = assay: Caspase-3/7 activation; assay type: cell-based, human; conditions: A375P (BRAF^V600E)
Protocol: (§1) At selected times, caspase-3/7 activity and cell density were determined using Caspase-Glo® (Promega) and CellTiter-Glo® reagents, respectively, using a PerkinElmer EnVision™ reader. Caspase activity was normalized to cell density and percent induction over the DMSO control was determined.
(§2) Cell cycle phases are shown in stacked format as a percentage of the total population. […] (PPTX) Click here for additional data file.

SK-MEL-28 cells [3] = assay: Caspase-3/7 activation; assay type: cell-based, human; conditions: SK-MEL-28 (BRAF^V600E)
Protocol: as §1, §2

ALK5 = ALK5 (Homo sapiens, UniProt P36897); assay: ALK5 cell-based assay
BRK (h) = molecular target: T3, BRK (h) (Homo sapiens, UniProt Q13882); assay: Kinase panel (Millipore) enzyme activity; assay type: biochemical
T3 construct: purchased Millipore

195 tumor cell lines = assay: Cell growth assay, summary over 195 tumor cell lines; assay type: cell-based; conditions: Homo sapiens, read-out: gIC50
Protocol: (§3) Growth was measured with CellTiter-Glo® (Promega) reagent per the manufacturer’s protocol, using a PerkinElmer EnVision™ reader at t = 0 and 72 h. IC50 values for cell growth inhibition (gIC50) were determined.
The functional selectivity of dabrafenib was evaluated by measuring the growth of a range of human tumor cell lines of different genetic mutation status.
(§4) (PDF) Click here for additional data file.

A375P cells [4] = assay: Cell cycle analysis; assay type: cell-based, human; conditions: A375P (BRAF^V600E), 72-hour exposure
Protocol: (§5) Cells were permeabilized, DNA was stained with propidium iodide, and samples were read on a BD LSRII flow cytometer. Data were analyzed using the cell cycle platform of FlowJo v6.1.1 software.
as §2

SK-MEL-28 cells [5] = assay: Cell cycle analysis; assay type: cell-based, human; conditions: SK-MEL-28 (BRAF^V600E), 72-hour exposure
Protocol: as §5, §2

HeLa = assay: Cell growth assay; assay type: cell-based; conditions: Homo sapiens, 72 h, RAF WT, RAS WT, 3-day, read-out: gIC50
Protocol: as §3, §4

SHP-77 = assay: Cell growth assay; assay type: cell-based; conditions: Homo sapiens, SHP77, 72 h; SHP-77, RAF WT, KRAS(G12V), 3-day; read-out: gIC50
Protocol: as §3, §4

HN5 = assay: Cell growth assay; assay type: cell-based; conditions: Homo sapiens, 72 h; HN5, RAF WT, RAS WT, 3-day; read-out: gIC50
Protocol: as §3, §4

OE-21 = assay: Cell growth assay; assay type: cell-based; conditions: Homo sapiens, OE21, 72 h; OE-21, RAF WT, RAS WT, 3-day; read-out: gIC50
Protocol: as §3, §4

SJRH30 = assay: Cell growth assay; assay type: cell-based; conditions: Homo sapiens, 72 h; SJRH30, RAF WT, RAS WT, 3-day; read-out: gIC50
Protocol: as §3, §4

IGROV1 = assay: Cell growth assay; assay type: cell-based; conditions: Homo sapiens, IGROV-1, 72 h; IGROV1, RAF WT, RAS WT, 3-day; read-out: gIC50
Protocol: as §3, §4

CaOV3 = assay: Cell growth assay; assay type: cell-based; conditions: Homo sapiens, Caov-3, 72 h; CaOV3, RAF WT, RAS WT, 3-day; read-out: gIC50
Protocol: as §3, §4

OV-90 = assay: Cell growth assay; assay type: cell-based; conditions: Homo sapiens, 72 h; OV-90, BRAF(del486-490), RAS WT, 3-day; read-out: gIC50
Protocol: as §3, §4

HCC-70 = assay: Cell growth assay; assay type: cell-based; conditions: Homo sapiens, HCC70, 72 h; HCC-70, RAF WT, RAS WT, 3-day; read-out: gIC50
Protocol: as §3, §4

YAPC = assay: Cell growth assay; assay type: cell-based; conditions: Homo sapiens, 72 h, RAF WT, RAS WT, 3-day, read-out: gIC50
Protocol: as §3, §4

NCI-H146 = assay: Cell growth assay; assay type: cell-based; conditions: Homo sapiens, 72 h; NCI-H146, RAF WT, RAS WT, 3-day; read-out: gIC50
Protocol: as §3, §4

DU-145 = assay: Cell growth assay; assay type: cell-based; conditions: Homo sapiens, 72 h; DU-145, RAF WT, RAS WT, 3-day; read-out: gIC50
Protocol: as §3, §4

CRO-AP2 = assay: Cell growth assay; assay type: cell-based; conditions: Homo sapiens, 72 h; CRO-AP2, RAF WT, RAS WT, 3-day; read-out: gIC50
Protocol: as §3, §4

A172 = assay: Cell growth assay; assay type: cell-based; conditions: Homo sapiens, A 172, 72 h; A172, RAF WT, RAS WT, 3-day; read-out: gIC50
Protocol: as §3, §4

LIMK1 (h) = molecular target: T4, LIMK1 (h) (Homo sapiens, UniProt P53667); assay: Kinase panel (Millipore) enzyme activity; assay type: biochemical
T4 construct: purchased Millipore
Excerpt: as §4

T2 sequence (Q9BZL6 whole entry): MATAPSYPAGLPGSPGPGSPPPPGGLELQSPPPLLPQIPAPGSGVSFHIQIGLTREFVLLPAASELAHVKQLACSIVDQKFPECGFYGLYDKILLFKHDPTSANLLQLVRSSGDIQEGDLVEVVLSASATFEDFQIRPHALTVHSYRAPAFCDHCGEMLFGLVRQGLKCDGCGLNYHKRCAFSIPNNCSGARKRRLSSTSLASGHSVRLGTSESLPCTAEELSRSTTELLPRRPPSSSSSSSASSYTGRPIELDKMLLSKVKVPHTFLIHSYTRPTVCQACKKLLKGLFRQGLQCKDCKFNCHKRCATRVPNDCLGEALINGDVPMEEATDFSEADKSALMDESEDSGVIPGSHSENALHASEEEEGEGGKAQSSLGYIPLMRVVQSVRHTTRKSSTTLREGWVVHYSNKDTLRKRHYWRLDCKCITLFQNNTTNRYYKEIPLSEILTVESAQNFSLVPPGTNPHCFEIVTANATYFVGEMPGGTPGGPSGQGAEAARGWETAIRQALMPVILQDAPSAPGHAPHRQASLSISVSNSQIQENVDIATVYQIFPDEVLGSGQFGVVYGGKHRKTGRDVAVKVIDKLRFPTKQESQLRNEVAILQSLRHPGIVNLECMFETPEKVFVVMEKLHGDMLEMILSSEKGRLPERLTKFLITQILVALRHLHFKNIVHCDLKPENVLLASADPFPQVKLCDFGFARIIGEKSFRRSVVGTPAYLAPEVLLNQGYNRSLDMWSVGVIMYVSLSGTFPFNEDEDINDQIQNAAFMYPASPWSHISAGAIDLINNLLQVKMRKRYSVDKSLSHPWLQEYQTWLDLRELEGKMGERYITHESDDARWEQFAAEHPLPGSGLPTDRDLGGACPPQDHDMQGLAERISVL
T4 sequence (P53667 whole entry): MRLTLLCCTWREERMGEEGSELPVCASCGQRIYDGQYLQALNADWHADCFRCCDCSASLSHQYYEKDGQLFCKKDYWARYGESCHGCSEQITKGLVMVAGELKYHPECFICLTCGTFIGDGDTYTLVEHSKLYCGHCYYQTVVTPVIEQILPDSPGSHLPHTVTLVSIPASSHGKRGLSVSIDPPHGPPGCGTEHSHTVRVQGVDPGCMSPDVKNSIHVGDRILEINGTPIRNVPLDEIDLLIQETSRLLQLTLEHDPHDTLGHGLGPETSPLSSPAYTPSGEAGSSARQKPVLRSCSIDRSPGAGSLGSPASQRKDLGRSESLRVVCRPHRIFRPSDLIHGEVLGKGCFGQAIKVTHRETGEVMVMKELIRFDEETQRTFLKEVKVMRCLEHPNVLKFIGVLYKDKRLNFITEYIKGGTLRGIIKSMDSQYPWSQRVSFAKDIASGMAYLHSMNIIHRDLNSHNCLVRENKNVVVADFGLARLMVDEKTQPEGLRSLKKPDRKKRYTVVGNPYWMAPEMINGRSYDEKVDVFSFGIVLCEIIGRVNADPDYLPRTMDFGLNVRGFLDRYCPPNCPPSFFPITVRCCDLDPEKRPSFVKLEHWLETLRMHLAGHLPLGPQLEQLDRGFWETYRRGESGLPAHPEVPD
T1 sequence (P57059 whole entry): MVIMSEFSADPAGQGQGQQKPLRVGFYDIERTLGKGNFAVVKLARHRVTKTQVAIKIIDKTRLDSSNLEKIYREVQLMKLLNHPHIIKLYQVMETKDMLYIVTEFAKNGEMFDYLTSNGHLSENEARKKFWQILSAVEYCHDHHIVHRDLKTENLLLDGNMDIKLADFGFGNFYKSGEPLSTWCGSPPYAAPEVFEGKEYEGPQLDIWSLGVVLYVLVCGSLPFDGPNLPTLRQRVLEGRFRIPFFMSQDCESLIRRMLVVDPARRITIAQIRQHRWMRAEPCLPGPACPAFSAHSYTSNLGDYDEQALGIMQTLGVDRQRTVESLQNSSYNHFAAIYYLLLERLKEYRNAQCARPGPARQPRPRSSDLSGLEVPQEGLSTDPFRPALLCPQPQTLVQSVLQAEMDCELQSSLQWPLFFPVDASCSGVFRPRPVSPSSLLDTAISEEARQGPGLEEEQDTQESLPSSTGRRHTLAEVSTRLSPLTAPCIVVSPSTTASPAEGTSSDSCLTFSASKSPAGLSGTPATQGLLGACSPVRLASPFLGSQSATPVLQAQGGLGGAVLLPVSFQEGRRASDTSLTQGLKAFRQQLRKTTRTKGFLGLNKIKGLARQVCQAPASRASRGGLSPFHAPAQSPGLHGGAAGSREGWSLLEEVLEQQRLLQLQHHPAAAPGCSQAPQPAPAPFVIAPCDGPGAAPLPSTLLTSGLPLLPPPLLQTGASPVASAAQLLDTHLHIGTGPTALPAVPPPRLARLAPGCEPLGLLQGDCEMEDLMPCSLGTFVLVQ
Sequence of ALK5 (h) (P36897 34-503): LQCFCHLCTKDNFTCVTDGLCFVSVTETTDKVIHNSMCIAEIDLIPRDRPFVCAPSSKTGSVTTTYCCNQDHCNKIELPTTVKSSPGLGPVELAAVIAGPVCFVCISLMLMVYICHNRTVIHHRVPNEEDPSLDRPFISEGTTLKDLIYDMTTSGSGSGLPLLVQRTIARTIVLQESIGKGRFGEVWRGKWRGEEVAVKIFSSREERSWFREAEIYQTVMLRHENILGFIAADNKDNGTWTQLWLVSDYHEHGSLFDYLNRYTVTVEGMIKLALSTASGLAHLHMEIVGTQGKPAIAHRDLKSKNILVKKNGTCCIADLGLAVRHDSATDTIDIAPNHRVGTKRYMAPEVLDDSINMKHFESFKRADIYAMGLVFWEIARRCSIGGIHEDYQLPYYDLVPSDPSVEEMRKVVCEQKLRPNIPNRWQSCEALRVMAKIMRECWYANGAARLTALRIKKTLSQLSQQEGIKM
Sequence of ALK5 (P36897 34-503, species assumed): as the sequence (P36897 34-503) above
T3 sequence (Q13882 whole entry): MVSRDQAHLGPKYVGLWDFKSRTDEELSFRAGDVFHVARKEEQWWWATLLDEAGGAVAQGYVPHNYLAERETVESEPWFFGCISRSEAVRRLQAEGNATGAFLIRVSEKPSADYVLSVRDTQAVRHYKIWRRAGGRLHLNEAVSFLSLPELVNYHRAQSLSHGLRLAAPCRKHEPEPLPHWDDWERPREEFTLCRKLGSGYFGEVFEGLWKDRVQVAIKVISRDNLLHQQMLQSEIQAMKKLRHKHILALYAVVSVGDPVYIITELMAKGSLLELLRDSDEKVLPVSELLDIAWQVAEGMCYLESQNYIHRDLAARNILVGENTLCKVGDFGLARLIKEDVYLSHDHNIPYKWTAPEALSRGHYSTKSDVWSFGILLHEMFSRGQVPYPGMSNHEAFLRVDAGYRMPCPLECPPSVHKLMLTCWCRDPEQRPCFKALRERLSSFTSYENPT

Work on CC(C)(C)c1nc(-c2cccc(NS(=O)(=O)c3c(F)cccc3F)c2F)c(-c2ccnc(N)n2)s1 [dabrafenib] yielded an IC50 (SIK (h)) of 27 nM, an IC50 [1] of 6 nM and an IC50 (PKD2 (h)) of 57 nM. For the same molecule, the IC50 (ALK5 (h)) was 11 nM, the “caspase-3/7 activation and apoptosis” value (A375P cells [2]) was “induced caspase-3/7 activation and apoptosis” and the “caspase-3/7 activation and apoptosis” value (SK-MEL-28 cells [3]) was “induced caspase-3/7 activation and apoptosis”. For the same molecule, the “ALK5 inhibition in cell-based assay” value (ALK5) was “absence of ALK5 inhibition”, the IC50 (BRK (h)) was 79 nM and the IC50 (195 tumor cell lines; 133 (88%) of the 152 RAS/RAF wild-type and all 18 mutant RAS cell lines) was greater than 10000 nM. For the same molecule, the IC50 (195 tumor cell lines; A673, 3 of the BRAF^V600E cell lines (GCT, RKO, A673)) was greater than 2000 nM, the IC50 (195 tumor cell lines; sixteen (80%) of the 20 cell lines encoding BRAF^V600E) was less than 200 nM and the “effect on cell cycle” value (A375P cells [4]) was “arrested the BRAF^V600E cells at the G1 (2n DNA) phase of the cell cycle”. For the same molecule, the “effect on cell cycle” value (SK-MEL-28 cells [5]) was “arrested the BRAF^V600E cells at the G1 (2n DNA) phase of the cell cycle”, the IC50 (HeLa) was greater than 10000 nM and the IC50 (SHP-77) was greater than 10000 nM. The IC50 (HN5) was greater than 10000 nM, the IC50 (OE-21) was greater than 10000 nM and the IC50 (SJRH30) was greater than 10000 nM. It also gave an IC50 (IGROV1) greater than 10000 nM, an IC50 (CaOV3) greater than 10000 nM and an IC50 (OV-90) of 29 nM. For the same molecule, the IC50 (HCC-70) was greater than 10000 nM, the IC50 (YAPC) was greater than 10000 nM and the IC50 (NCI-H146) was greater than 10000 nM. For the same molecule, the IC50 (DU-145) was greater than 10000 nM, the IC50 (CRO-AP2) was greater than 10000 nM and the IC50 (A172) was greater than 10000 nM. It also gave an IC50 (LIMK1 (h)) of 15 nM.
